Test results reported in publication PMC4792136, “A generic screening platform for inhibitors of virus induced cell fusion using cellular electrical impedance” (Scientific Reports, 2016).

Tests used:
RSV F protein [1] = target: T1, RSV F protein (Human respiratory syncytial virus A, UniProt P03420); assay: recombinant F CEI fusion assay, 384-well; type: cell-based
T1 construct: expressed in transfected cells; host or cells: Cos7 cells (transiently transfected), co-plated with BsrT7 cells
Description: (§1) Impedance assays were setup in parallel to microscopy based fluorescent protein cytoplasmic mixing and cell content mixing T7 driven fusion assays. For testing small molecule inhibitors see cell content mixing, T7 driven reporter fusion assay protocol for cell infection, transfection and plating method. All other steps were as listed below.
(§2) Cos7-G cells were transfected with the RSV F expression vector (pCICO-Fopt) in 6 well plates using lipofectamine LTX as per manufacturer’s instructions (Invitrogen) or infected with RSV (MOI of 2). Four hours post infection/transfection, cells were trypsinized and re-suspended to 8 × 10^5 cells/ml. E-Plates were pre-blanked and Cos7-G and Cos7-R cells were seeded together at a 1:1 ratio for a final cell density of 5 × 10^4 cells/well. Plates were placed into the SP station, incubated at 37 °C in 5% CO2 and impedance was recorded every 15 min over 72 h.
(§3) 384-well fusion assays were setup as per 96-well protocol with the following changes: Cos7 and BsrT7 cells were seeded at a final concentration of 1 × 10^4 cells/well. Compound titration was performed in a Biomek NX Laboratory Automation Workstation and added to a final volume of 25 μl/well. Luciferase activity was determined using an EnVision Multilabel reader (PerkinElmer).

RSV [2] = assay: RSV CEI fusion assay, live virus, 96-well; type: cell-based, respiratory syncytial virus; details: for IC50: human respiratory syncytial virus, read-out: RSV CEI 96 IC50
Description: as §1, §2
(§4) The protocol is an adaptation of that described by Bagai and Lamb[29]. Cos7 cells were transfected with a plasmid containing Renilla luciferase under T7 promoter control (pGL80-T7RL) and an RSV F expression vector. For live virus fusion assay, transfection media was removed after 2 h and replaced with SF media containing RSV (MOI of 2). Two h post infection (4 h post initial transfection) cells were trypsinized and re-suspended to 8 × 10^5 cells/ml. Compounds were serially diluted in SF Opti-MEM media and added to opaque bottom, white microtitre plates (Corning) at 50 μl/well along with 25 μl of both Cos7 and BsrT7 cells added to each well to obtain a final concentration of 5 × 10^4 cells/well. After 24 h, media was exchanged with 50 μl/well Opti-MEM media supplemented with 2% FBS and 8 ng/ml Enduren Live Cell Substrate (Promega). After 6 h at 37 °C in a humidified incubator supplemented with 5% CO2, the plates were read using a Lucy 2 luminometer with 1 sec integration time. Assays were performed in triplicate.

RSV F protein [3] = target: T1, RSV F protein; assay: Cell content mixing T7 luciferase fusion assay, recombinant F, 384-well; type: cell-based
Protocol: as §4, §3

RSV F protein [4] = target: T1, RSV F protein; assay: Cell content mixing T7 luciferase fusion assay, recombinant F, 96-well; type: cell-based
Protocol: as §4

RSV [5] = system: RSV; design: method as in earlier work; details: HEp-2 cells, MOI 0.2, 48 h, MTT; CPE data supplied by Biota Pharmaceuticals ref 35; cited from earlier work
RSV [6] = assay: Plaque-reduction neutralization (PRNT) assay, RSV; type: cell-based; details: human respiratory syncytial virus; RSV on vero cells; in Table S1 printed as ± followed by a range
RSV F protein [7] = target: T1, RSV F protein; assay: recombinant F CEI fusion assay, 96-well; type: cell-based; details: cells transfected with noncoding empty vector (eV)
Description: as §1, §2
The protocol is an adaptation of that described by Bagai and Lamb[29]. Cos7 cells were transfected with a plasmid containing Renilla luciferase under T7 promoter control (pGL80-T7RL) and an RSV F expression vector. For live virus fusion assay, transfection media was removed after 2 h and replaced with SF media containing RSV (MOI of 2). […] After 6 h at 37 °C in a humidified incubator supplemented with 5% CO2, the plates were read using a Lucy 2 luminometer with 1 sec integration time. […]

T1 sequence (P03420 137-574): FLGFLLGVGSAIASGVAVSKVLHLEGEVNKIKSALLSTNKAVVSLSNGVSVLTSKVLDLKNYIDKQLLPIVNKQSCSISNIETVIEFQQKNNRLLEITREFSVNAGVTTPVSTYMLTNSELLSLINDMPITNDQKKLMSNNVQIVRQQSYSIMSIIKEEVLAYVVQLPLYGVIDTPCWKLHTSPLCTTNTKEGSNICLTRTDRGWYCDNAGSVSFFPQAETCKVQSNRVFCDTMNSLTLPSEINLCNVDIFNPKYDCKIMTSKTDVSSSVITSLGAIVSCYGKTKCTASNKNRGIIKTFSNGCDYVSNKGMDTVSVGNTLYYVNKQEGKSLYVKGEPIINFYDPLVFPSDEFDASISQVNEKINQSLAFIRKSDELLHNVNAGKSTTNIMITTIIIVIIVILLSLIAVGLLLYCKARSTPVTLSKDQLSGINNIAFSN
T1 sequence (P03420 26-109): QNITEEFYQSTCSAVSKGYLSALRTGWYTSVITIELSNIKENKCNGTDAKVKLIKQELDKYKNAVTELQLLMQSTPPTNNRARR

O=C(c1ccc(F)cc1)N1CCN2C(=O)c3cc[n+]([O-])cc3C12c1ccc(Cl)cc1 (centres unmarked) [BTA-3]
IC50 (RSV F protein [1]): 1000 nM
IC50 (RSV [2]): 200 nM
IC50 (RSV F protein [3]): 31600 nM
IC50 (RSV F protein [4]): 2510 nM
CPE EC50 (RSV [5]): -6.8 log10 M

Cc1ocnc1C(=O)N1CCN2C(=O)c3ccncc3[C@@]21c1ccc(Cl)cc1 [BTA-5]
IC50 (RSV F protein [1]): 2510 nM
IC50 (RSV [2]): 501 nM
IC50 (RSV F protein [3]): 79400 nM
IC50 (RSV F protein [4]): 12600 nM
CPE EC50 (RSV [5]): -6.6 log10 M

O=C(c1ccoc1)N1CCN2C(=O)c3ccncc3[C@]12c1ccc(Cl)cc1 [BTA-2]
IC50 (RSV F protein [1]): 251 nM
IC50 (RSV [2]): 20 nM
IC50 (RSV F protein [3]): 2510 nM
IC50 (RSV F protein [4]): 158 nM
CPE EC50 (RSV [5]): -7.9 log10 M

O=C(c1ccc(F)cc1)N1CCN2C(=O)c3ccncc3C12c1ccc(Cl)cc1 (centres unmarked) [BTA-1]
IC50 (RSV F protein [1]): 6310 nM
IC50 (RSV [2]): 398 nM
IC50 (RSV F protein [3]): 158000 nM
IC50 (RSV F protein [4]): 3980 nM
CPE EC50 (RSV [5]): -6.5 log10 M

O=C(c1ccoc1)N1CCN2C(=O)c3cc[n+]([O-])cc3[C@]12c1ccc(Cl)cc1 [BTA-4]
IC50 (RSV F protein [1]): 2510 nM
IC50 (RSV [2]): 39.8 nM
IC50 (RSV F protein [3]): 7940 nM
IC50 (RSV F protein [4]): 1000 nM
CPE EC50 (RSV [5]): -7.6 log10 M

Cc1ocnc1C(=O)N1CCN2C(=O)c3ccncc3C21C1CCOCC1 (centres unmarked) [BTA-6]
IC50 (RSV F protein [1]): 200 nM
IC50 (RSV [2]): 5.01 nM
IC50 (RSV F protein [3]): 1000 nM
IC50 (RSV F protein [4]): 39.8 nM
CPE EC50 (RSV [5]): -8.5 log10 M

Cc1ccc(CCCO)c(NCc2ccc3nc(NCCCN4CCOCC4)n(Cc4nc(C)ccc4O)c3c2)c1 [TMC-353121]
IC50 (RSV [6]): 5.8 nM
change in cell impedance of control cells (RSV [2]; control (uninfected) cells): No change in cell impedance
IC50 (RSV [2]): 0.794 nM
effect on cell impedance of control cells (RSV F protein [7]): No effect on cell impedance

O=C1c2ccncc2[C@@]2(c3ccc(Cl)cc3)N1CCN2C(=O)C1CC1 [BTA-7]
IC50 (RSV F protein [1]): 12600 nM
IC50 (RSV [2]): 794 nM
IC50 (RSV F protein [4]): 39800 nM
CPE EC50 (RSV [5]): -5.8 log10 M
